From patent publication US12104178B2, “DHFR tunable protein regulation” (Obsidian Therapeutics, Inc., priority 2017, dated 2024)
Where “and” joins values, the source holds several entries; their conditions need not be identical. Equal values may be shown once. Entries after “also recorded” stand apart in the source; their conditions may differ.

Assays:
HEK-293T cells = experiment: IL15 western blot of DD IL15-IL15Ra, transient transfection; format: cell-based, human; settings: 10 μM Trimethoprim or 1 μM Shield-1, 24 h
Experimental: To test ligand dependent IL15-IL15Ra production, 1 million HEK-293T cells were plated in a 6-well plate in growth media containing DMEM and 10 FBS and incubated overnight at 37° C., 5% CO2. […] Cells were harvested and IL15 levels are analyzed via western blotting using human IL15 antibody (Abcam, Cambridge, UK).

HCT116 cells [1] = experiment: IL15-IL15Ra in vivo tumor study (xenograft); settings: 5 million HCT116 cells s.c., nude mice
Experimental: The functional capability of IL15-IL15Ra constructs was tested in vivo in xenograft assays. The experiment was designed to test the hypothesis that pulsatile expression of IL15-IL15Ra fusion proteins from cancer cell lines such as HCT116, in mice may stimulate the mouse's NK cells to attack the tumor leading to tumor growth inhibition. […] Tumors were allowed to develop over a period of 22 days.
Mice injected with OT-IL15-009 expressing cells were left untreated, or treated with vehicle control or TMP.

primary T cells = experiment: Regulated expression of IL15-IL15Ra in T cells (FACS); format: cell-based, human
Experimental: The transduction was carried out at two different lentivirus concentrations, 5 μl and 20 μl for the DD regulated construct using Lentiboost™ (Sirion Biotech, Germany). […] Samples were analyzed with an anti IL15Ra antibody using FACS. Additional controls samples such as cells treated with Lentiboost only, untransduced cells treated with DMSO or TMP, and Isotype controls were included in the FACS analysis. […] In both figures, DMSO-A and TMP-A represent cells treated with 5 μl of lentivirus and DMSO-B and TMP-B represent cells treated with 20 μl of lentivirus. […] Additionally, very low levels of IL15Ra were detected in the DMSO treated samples under the same conditions as well as in the untransduced T cells.
IL15Ra expression was measured using FACS.

HCT116 tumors = experiment: HCT116 OT-IL15-009 tumors in mice, IL15-IL15Ra western blot and TMP levels; format: in vivo, BALB/c nude mice; settings: TMP 100 then 300 mg/kg orally twice a day, 17 days
HCT116 cells [2] = experiment: IL15 shedding into media, ELISA and MSD; format: cell-based, human; settings: TMP doses
Experimental: To test if IL15 is shed into the media, supernatant from HCT116 cells expressing IL15-IL15Ra fusion constructs was subject to immunoassays such as ELISA and MSD (Rockville, Maryland). In FIG. 54B, OD indicates optical density. IL15 was measured in the media of cells expressing IL15-IL15Ra fusion constructs.

CD4 positive T cells = experiment: Kinetics of IL15Ra surface expression in T cells with TMP (Table 92); format: cell-based, human; settings: for Stabilization ratio: TMP vs DMSO;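 on all read-outs here: CD4 positive T cells, CD3/CD28 bead-activated and lentivirally transduced with DD-IL15-IL15Ra, read for surface IL15Ra positivity, stabilization ratio is fold change of ligand over DMSO, untransduced cells as negative control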
HCT-116 cells [3] = experiment: TMP dose response of IL15-IL15Ra surface expression (FACS); format: cell-based, human; settings: 24 h
Description: Surface expression of IL15-IL15Ra fusion constructs was quantified by FACS using IL15Ra-PE antibody.
Surface expression of IL15-IL15Ra fusion construct was quantified by FACS using IL15Ra-PE antibody.

HCT-116 cells [4] = experiment: Time course of IL15-IL15Ra surface expression with TMP; format: cell-based, human; settings: 10 μM TMP
Experimental: The time course of ligand dependent stabilization of IL15-IL15Ra fusion constructs was measured in HCT-116 cells.

HCT116 cells [5] = experiment: IL15Ra immunoblot, TMP dose response; format: cell-based, human; settings: TMP 10, 33, 100 μM, 24 h
Description: Cell lysates were obtained and immunoblotted with anti IL15Ra antibody.
Cell lysates were immunoblotted with anti IL15Ra antibody.

HEK293T cells = experiment: Surface IL15 and IL15Ra FACS, transient transfection; format: cell-based, human; settings: Shield-1 or Trimethoprim
Experimental: 48 hours after transfection, cells were analyzed using FACS.

OT-IL15-009: IL15-IL15Ra fusion with ecDHFR (R12Y, Y100I) DD
IL15 stabilization by western blot (FIG. 24A) (HEK-293T cells): strong ligand (Trimethoprim) dependent stabilization of IL15 | Tumor growth (FIG. 55) (HCT116 cells [1]): mice treated with TMP had smaller tumors than mice of the other two groups | IL15Ra expression in T cells (FIG. 35) (primary T cells; 10 μM TMP 24/48 h or 0.156-160 μM 24 h): increase in the expression of IL15Ra in T cells with both doses of lentivirus used; also recorded: An increase in the percentage of IL15Ra cells with increasing doses of TMP was observed | % Positive cells, IL15Ra positive (primary T cells; T cells, surface expression): 15.8% | % Positive cells, IL15 and IL15Ra positive (primary T cells; T cells, surface expression): 0.51% | % Positive cells, IL15 positive (primary T cells; T cells, surface expression): 0.60% | IL15-IL15Ra in tumors by western blot (FIG. 49) (HCT116 tumors): elevated levels of IL15-IL15Ra expression, compared to tumors treated with the vehicle | IL15 levels in the media (FIG. 54B, 54C) (HCT116 cells [2]): TMP dose dependent increase in IL15 levels detected in the media | Percentage of IL15Ra positive cells (CD4 positive T cells; 100 μM TMP): 16.6% and 16% | Proportion of CD4 T cells with surface IL15Ra over time (FIG. 48) (CD4 positive T cells; 100 μM TMP, 1-24 h): from 4 hrs after TMP treatment, the cells transduced with the OT-IL15-009 construct and treated with TMP exhibited an increased proportion of cells with surface expression of IL15Ra | percentage of IL15Ra positive CD4 positive T cells, TMP (CD4 positive T cells; 100 μM TMP, 1 hours): 1.86 | percentage of IL15Ra positive CD4 positive T cells, TMP (CD4 positive T cells; 100 μM TMP, 2 hours): 2.27 | percentage of IL15Ra positive CD4 positive T cells, TMP (CD4 positive T cells; 100 μM TMP, 4 hours): 4.01 | percentage of IL15Ra positive CD4 positive T cells, TMP (CD4 positive T cells; 100 μM TMP, 6 hours): 5.85 | percentage of IL15Ra positive CD4 positive T cells, TMP (CD4 positive T cells; 100 μM TMP, 8 hours): 7.09 | percentage of IL15Ra positive CD4 positive T cells, TMP (CD4 positive T cells; 100 μM TMP, 15 hours): 12.53 | percentage of IL15Ra positive CD4 positive T cells, TMP (CD4 positive T cells; 100 μM TMP, 22 hours): 14.57 | percentage of IL15Ra positive CD4 positive T cells, TMP (CD4 positive T cells; 100 μM TMP, 24 hours): 13.75 | percentage of IL15Ra positive CD4 positive T cells, DMSO (CD4 positive T cells; 1 hours): 2.03 | percentage of IL15Ra positive CD4 positive T cells, DMSO (CD4 positive T cells; 2 hours): 2.12 | percentage of IL15Ra positive CD4 positive T cells, DMSO (CD4 positive T cells; 4 hours): 1.99 | percentage of IL15Ra positive CD4 positive T cells, DMSO (CD4 positive T cells; 6 hours): 1.87 | percentage of IL15Ra positive CD4 positive T cells, DMSO (CD4 positive T cells; 8 hours): 2.14 | percentage of IL15Ra positive CD4 positive T cells, DMSO (CD4 positive T cells; 15 hours): 2.46 | percentage of IL15Ra positive CD4 positive T cells, DMSO (CD4 positive T cells; 22 hours): 2.78 | percentage of IL15Ra positive CD4 positive T cells, DMSO (CD4 positive T cells; 24 hours): 2.07 | Stabilization ratio (CD4 positive T cells; 1 hours): 0.92 | Stabilization ratio (CD4 positive T cells; 4 hours): 2.02 | Stabilization ratio (CD4 positive T cells; 6 hours): 3.13 | Stabilization ratio (CD4 positive T cells; 8 hours): 3.31 | Stabilization ratio (CD4 positive T cells; 15 hours): 5.09 | Stabilization ratio (CD4 positive T cells; 22 hours): 5.24 | Stabilization ratio (CD4 positive T cells; 24 hours): 6.64 | Percentage of IL15Ra positive cells (CD4 positive T cells; untreated T cells): 1.68% and 1% | Median Fluorescence Intensity, surface IL15-IL15Ra (HCT-116 cells [3]; DMSO): 1260 | Median Fluorescence Intensity, surface IL15-IL15Ra (HCT-116 cells [3]; TMP 0.01 μM): 1384 | Median Fluorescence Intensity, surface IL15-IL15Ra (HCT-116 cells [3]; TMP 0.02 μM): 1492 | Median Fluorescence Intensity, surface IL15-IL15Ra (HCT-116 cells [3]; TMP 0.05 μM): 1947 | Median Fluorescence Intensity, surface IL15-IL15Ra (HCT-116 cells [3]; TMP 0.14 μM): 2741 | Median Fluorescence Intensity, surface IL15-IL15Ra (HCT-116 cells [3]; TMP 0.41 μM): 3360 | Median Fluorescence Intensity, surface IL15-IL15Ra (HCT-116 cells [3]; TMP 3.7 μM): 4265 | Median Fluorescence Intensity, surface IL15-IL15Ra (HCT-116 cells [3]; TMP 11.11 μM): 4267 | Median Fluorescence Intensity, surface IL15-IL15Ra (HCT-116 cells [3]; TMP 33.33 μM): 4485 | Median Fluorescence Intensity, surface IL15-IL15Ra (HCT-116 cells [3]; TMP 100 μM): 4633 | Median Fluorescence Intensity, surface IL15-IL15Ra (HCT-116 cells [3]; TMP […]): 4014 | MFI, surface IL15-IL15Ra (HCT-116 cells [4]; 0 h): 4004 | MFI, surface IL15-IL15Ra (HCT-116 cells [4]; 12 h): 7054 | MFI, surface IL15-IL15Ra (HCT-116 cells [4]; 16 h): 9390 | MFI, surface IL15-IL15Ra (HCT-116 cells [4]; 24 h): 14056 | MFI, surface IL15-IL15Ra (HCT-116 cells [4]; 48 h): 28644 | MFI, surface IL15-IL15Ra (HCT-116 cells [4]; 72 h): 35303 | IL15Ra expression by immunoblot (FIG. 26, 27, 54A) (HCT116 cells [5]): virtually undetectable in the absence of TMP, and addition of increasing doses of TMP resulted in an increase in IL15Ra levels | Surface expression of IL15 and IL15Ra (FIG. 24B, 24C) (HEK293T cells): strong ligand (Trimethoprim) dependent surface expression of IL15 and IL15Ra
